These results are taken from ChEMBL document CHEMBL1149799, “Bioactive peroxides as potential therapeutic agents” (Eur J Med Chem, 2008).

In one test the test system is Candida albicans. The experiment in a line: Antifungal activity against Candida albicans. The test is classed as functional.
In another test the test system is L1210. The experiment in a line: Cytotoxicity against mouse L1210 cells. Particulars: Mus musculus, L1210. The test is classed as functional, cell-based.
For test [1], the system named is A549. The experiment in a line: Cytotoxicity against human A549 cells. It is filed as functional, cell-based. The note with it: Homo sapiens, A549; for EC50: read-out: ED50 (the source's name).
A further test has as its system KB. The experiment in a line: Cytotoxicity against human KB cells. The test is classed as functional, cell-based. The note with it: Homo sapiens; for EC50: KB, read-out: ED50 (the source's name).
The next test has as its system P388. Put plainly: Cytotoxicity against mouse P388 cells. The test is classed as functional, cell-based. The note with it: Mus musculus, P388; for EC50: read-out: ED50 (the source's name).
Another test deals with EL4. The experiment in a line: Cytotoxicity against […] cells. The test is classed as functional, cell-based. The note with it: Mus musculus.
Another test relates to LoVo. The experiment in a line: Cytotoxicity against human LoVo cells. It is filed as functional.
The test system of a further test is MOLT-4. The experiment in a line: Cytotoxicity against human MOLT4 cells by soft agar assay. It is filed as functional.
Test [2] is described as follows: Cytotoxicity against human IGRO cells by soft agar assay. It is filed as functional.
Test [3] is described as follows: Cytotoxicity against human LOX cells by soft agar assay. The test is classed as functional.
Test [4] can be described thus: Cytotoxicity against mouse B16-F1cells. The test is classed as functional, cell-based. The note with it: B16-F1.
Test [5] in a line: Cytotoxicity against human GXF251L cells. The test is classed as functional, cell-based. Particulars: GXF 251L.
Test [6] is described as follows: Cytotoxicity against human MAXF642NL cells. The test is classed as functional, cell-based.
Test [7] can be described thus: Cytotoxicity against human UXF1138L cells. It is filed as functional, cell-based. The note with it: UXF 1138L.
Test [8] in a line: Cytotoxicity against human RXF486L cells. It is filed as functional, cell-based. Particulars: RXF 486L.
A short description of test [9]: Cytotoxicity against human MAXF401NL cells. The test is classed as functional, cell-based. The note with it: MAXF 401NL.
Test [10] is described as follows: Cytotoxicity against human LXF529L cells. It is filed as functional, cell-based. Particulars: LXF 529L.
Test [11] can be described thus: Cytotoxicity against human […] cells. It is filed as functional. Particulars: read-out: ED50 (the source's name).
Test [12] can be described thus: Cytotoxicity against human H116 cells. The test is classed as functional, cell-based.
The subject of the next test is T98G. Put plainly: Cytotoxicity against human T98G cells. The test is classed as functional, cell-based.
In the next test the test system is SK-BR-3. Put plainly: Cytotoxicity against human SKBR3 cells. It is filed as functional, cell-based.
The subject of a further test is PSN1. Put plainly: Cytotoxicity against human PSN1 cells. It is filed as functional, cell-based.
The test system of a further test is WEHI-164. Put plainly: Cytotoxicity against mouse WEHI164 cells. The test is classed as functional, cell-based.
The next test relates to BXPC-3. Put plainly: Cytotoxicity against human BXPC3 cells. The test is classed as functional.
The subject of a further test is KM-20L2. The experiment in a line: Cytotoxicity against human KM20L2 cells. The test is classed as functional.
In the next test the test system is DU-145. The experiment in a line: Cytotoxicity against human DU145 cells. The test is classed as functional, cell-based.
The next test deals with MCF7. Put plainly: Cytotoxicity against human MCF7 cells. It is filed as functional, cell-based.
The subject of the next test is NCI-H460. Put plainly: Cytotoxicity against human NCI-H460 cells. It is filed as functional, cell-based.
For another test, the system named is SF-268. The experiment in a line: Cytotoxicity against human SF268 cells. The test is classed as functional, cell-based.
Another test concerns Plasmodium falciparum. The experiment in a line: Antimalarial activity against Plasmodium falciparum W2. The test is classed as functional, organism-based.
Test [13] deals with A549. The experiment in a line: Cytotoxicity against human A549 cells by soft agar assay. The test is classed as functional.
For a further test, the system named is KM12. The experiment in a line: Cytotoxicity against human KM12 cells by soft agar assay. It is filed as functional.
A further test deals with BT-549. The experiment in a line: Cytotoxicity against human BT549 cells by soft agar assay. The test is classed as functional.
For the next test, the system named is HL-60. The experiment in a line: Cytotoxicity against human HL60 cells by soft agar assay. It is filed as functional.
The test system of another test is 786-0. Put plainly: Cytotoxicity against human renal 7860 cells by soft agar assay. It is filed as functional.
A further test relates to PC-3. Put plainly: Cytotoxicity against human PC3 cells. It is filed as functional, cell-based.
The nature of test [14]: Cytotoxicity against human HERP3B cells. It is filed as functional.

Converted amounts (≈) assume the structure as drawn.

The molecule `CC(CCCCCC/C=C\C=C\c1ccccc1)CC1(C)CC(C)(CC(=O)O)OO1` (single isomer, unassigned) returned an MIC with Candida albicans of 1.6 mg/L (≈ 3.86 µM).

The IC50 is the midpoint of a concentration-inhibition curve. A low value points to inhibition by little substance. As for `CC(CCCC/C=C/CC/C=C\c1ccccc1)C[C@]1(C)C[C@](C)(CC(=O)O)OO1` (stereo partly drawn) [EPIPLAKINIC ACID C], the IC50 came out at 0.052 mg/L (≈ 0.125 µM) with L1210, 2 mg/L (≈ 4.82 µM) with A549 [1], 2.5 mg/L (≈ 6.03 µM) with P388 and 4.6 mg/L (≈ 11.1 µM) in the test on EL4. In addition, the figures for the MIC against KB and in the test on LoVo were 0.01 mg/L (≈ 0.0241 µM) and 1 mg/L (≈ 2.41 µM), respectively.

With `C=C1CCCC(C)(C)C1CC[C@]1(C)CC[C@H]([C@@H](C)C(=O)OC)OO1` (stereo partly drawn) [NUAPAPUIN B], the GI50 in the test with MOLT-4 was > 5 µM; in test [2] it was 0.5 µM; in test [3], 0.47 µM.

For the molecule `COC(=O)C[C@H]1OO[C@](C)(C/C(C)=C/C(C)=C/Cc2ccccc2)C[C@H]1C` [CAPUCINOATE B], half-maximal inhibition in test [4] (IC50) required 0.012 mg/L (≈ 0.0322 µM).

As to `CCCCCC[C@@]1(CC)C=C(CC)[C@@H](CC(=O)OC)OO1`, the IC50 in [5] is 8.3 mg/L (≈ 27.8 µM); in test [6] it was 7.2 mg/L (≈ 24.1 µM); in test [7], 14.1 mg/L (≈ 47.2 µM); in test [8], 14.4 mg/L (≈ 48.3 µM); in test [9], 14.9 mg/L (≈ 49.9 µM); in [10], 7.7 mg/L (≈ 25.8 µM).

`C=C(C)[C@@H](CC)CC[C@@H](C)[C@H]1CC[C@@H]2[C@@H]1CC[C@H]1[C@H]2[C@@H](OO)C=C2C[C@@H](O)CC[C@@]21C`: the EC50 turned out to be 0.5 mg/L (≈ 1.16 µM) in the test on A549 [1], 1 mg/L (≈ 2.32 µM) in the test on KB, 0.4 mg/L (≈ 0.929 µM) in the test on P388 and 1 mg/L (≈ 2.32 µM) in test [11].

For `CC(C)(OO)C1=C[C@@]23CCC4C(C)(C)CCC[C@]4(C)[C@H]2C[C@H]1OO3` (stereo partly drawn), the IC50 is 5 mg/L (≈ 14.9 µM) in the test with A549 [1]; 2.5 mg/L (≈ 7.43 µM) in test [12]; > 5 mg/L in the test on T98G; > 5 mg/L in the test on SK-BR-3; 5 mg/L (≈ 14.9 µM) with PSN1.

As to `CC/C=C/C(CC)C/C(C)=C/[C@]1(CC)C[C@@H](CC)[C@H](CC(=O)OC)OO1` (stereo partly drawn), the midpoint of inhibition with WEHI-164, the IC50, lay at 8.2 mg/L (≈ 22.4 µM).

With `CC/C(=C\[C@@]1(CC)C[C@H](CC)[C@H](CC(=O)OC)OO1)[C@@H]1O[C@@H]1CC` [PLAKORSTATIN 2], the GI50 with BXPC-3 is reported as 6.4; in the test with KM-20L2, 6.7; with DU-145, 1.7; in the test with MCF7 it was 3.8; in the test on NCI-H460, >10; in the test on SF-268 it was 1.6. In addition, the EC50 with P388 turned out to be 0.91 mg/L (≈ 2.67 µM).

`CCC/C=C/[C@]1(CC)C[C@H](CC)[C@H](CC(=O)OC)OO1` [PLAKORTIDE K] showed an IC50 with Plasmodium falciparum of 0.57 mg/L (≈ 2 µM).

On to `CC/C=C/C(CC)C/C(C)=C/[C@]1(CC)C[C@H](CC)[C@H](CC(=O)OC)OO1` (stereo partly drawn) [PLAKORTIDE H], for which inhibition in the test on WEHI-164 was half-maximal at 7.1 mg/L (≈ 19.4 µM) (IC50).

Take `C[C@@H]1C[C@@H]([C@H](O)CC2CC(=O)NC(=O)C2)C(=O)[C@@H](C)C1` [CYCLOHEXIMIDE]: the IC50 came out at 0.1 mg/L (≈ 0.355 µM) with A549 [1]; 0.1 mg/L (≈ 0.355 µM) in test [12]; 2.5 mg/L (≈ 8.89 µM) in the test with T98G; 0.05 mg/L (≈ 0.178 µM) in the test with SK-BR-3; 0.01 mg/L (≈ 0.0355 µM) in the test with PSN1.

On to `C=C1CCCC(C)(C)C1(O)CC/C(C)=C/CC[C@]1(C)CC[C@H]([C@@H](C)C(=O)OC)OO1` (stereo partly drawn) [EPIMUQUBILIN B], for which the GI50 (with A549 [13]; in the test on KM12; in the test on BT-549; with MOLT-4; in test [2]; in the test with HL-60) was > 5 µM in each case. Moreover, in the test with 786-0, the GI50 was > 5 µM.

With `CC(=O)O[C@H]1C(=O)[C@@]2(C)[C@H]([C@H](OC(=O)c3ccccc3)[C@]3(O)C[C@H](OC(=O)[C@H](O)[C@@H](NC(=O)c4ccccc4)c4ccccc4)C(C)=C1C3(C)C)[C@]1(OC(C)=O)CO[C@@H]1C[C@@H]2O` [PACLITAXEL], the Activity in the test with PC-3 worked out at 80; in test [14] it was 85.

With `C=CC(C[C@@H](C)[C@H]1CC[C@H]2[C@@H]3CC=C4C[C@@H](O)CC[C@]4(C)[C@H]3CC[C@]12C)(OO)C(C)C` (stereo partly drawn), the EC50 with A549 [1] was 7.1 mg/L (≈ 16.5 µM); in the test with KB, 1.8 mg/L (≈ 4.18 µM); with P388 it was 0.3 mg/L (≈ 0.697 µM); in [11], 5.9 mg/L (≈ 13.7 µM).

In the case of `C=C1CCC[C@@H]2[C@@H](CC[C@@]3(C)CC[C@H]([C@H](C)C(=O)O)OO3)[C@H](C)CC[C@@]12C` [SIGMOSCEPTRELLIN B], the GI50 in the test on A549 [13] came to 0.94 µM; in the test with KM12, 0.95 µM; in the test on BT-549, 0.96 µM; in the test with MOLT-4 it was 0.84 µM; in test [2], 0.1 µM; in the test with HL-60, 0.14 µM. For the same molecule, the GI50 with 786-0 amounted to 0.5 µM; in test [3], 0.16 µM.

Regarding `CCCCC[C@@]1(CC)C=C(CC)[C@@H](CC(=O)OC)OO1`, the IC50 in [5], in test [6], in test [7], in test [8], in test [9] and in test [10] was > 10 mg/L in each case.
